Experimental data from paper PMC9884089 (Journal of Medicinal Chemistry, 2023).
Like-named read-outs stand apart in the source and are kept apart here.

Columns and labels:
TNKS2 = molecular target: T1, TNKS2 (Homo sapiens, UniProt Q9H2K2); assay: biochemical
T1 sequence (Q9H2K2 1-1166): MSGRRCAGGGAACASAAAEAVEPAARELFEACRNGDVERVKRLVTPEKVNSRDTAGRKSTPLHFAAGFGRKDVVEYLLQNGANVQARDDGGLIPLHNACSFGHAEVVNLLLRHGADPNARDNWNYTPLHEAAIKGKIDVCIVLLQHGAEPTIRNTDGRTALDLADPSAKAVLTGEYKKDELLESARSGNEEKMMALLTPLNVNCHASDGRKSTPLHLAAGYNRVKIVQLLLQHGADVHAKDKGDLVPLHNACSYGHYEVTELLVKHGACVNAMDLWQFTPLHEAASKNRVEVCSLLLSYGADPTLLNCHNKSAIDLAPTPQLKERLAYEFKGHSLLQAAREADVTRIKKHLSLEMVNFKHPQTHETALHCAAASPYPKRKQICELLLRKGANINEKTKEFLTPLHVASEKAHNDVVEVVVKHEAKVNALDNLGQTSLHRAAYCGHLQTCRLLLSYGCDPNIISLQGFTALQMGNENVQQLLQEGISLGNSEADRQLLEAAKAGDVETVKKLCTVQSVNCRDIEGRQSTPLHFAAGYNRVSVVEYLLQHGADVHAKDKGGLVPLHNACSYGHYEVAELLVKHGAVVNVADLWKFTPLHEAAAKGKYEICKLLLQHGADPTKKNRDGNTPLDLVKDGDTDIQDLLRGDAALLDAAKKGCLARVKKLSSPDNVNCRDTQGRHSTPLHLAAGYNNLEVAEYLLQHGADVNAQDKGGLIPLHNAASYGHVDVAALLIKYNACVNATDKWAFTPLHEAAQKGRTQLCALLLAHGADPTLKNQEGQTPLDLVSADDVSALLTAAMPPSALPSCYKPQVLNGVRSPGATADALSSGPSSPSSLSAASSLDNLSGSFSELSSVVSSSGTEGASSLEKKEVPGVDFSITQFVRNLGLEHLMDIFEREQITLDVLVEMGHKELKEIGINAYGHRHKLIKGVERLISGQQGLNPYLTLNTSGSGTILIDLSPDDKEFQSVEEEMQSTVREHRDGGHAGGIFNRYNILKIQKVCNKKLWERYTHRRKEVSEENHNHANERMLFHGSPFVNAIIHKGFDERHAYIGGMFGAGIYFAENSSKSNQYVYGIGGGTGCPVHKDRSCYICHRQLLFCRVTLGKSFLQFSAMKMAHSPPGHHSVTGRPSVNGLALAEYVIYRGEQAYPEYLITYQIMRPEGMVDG
Protocol: The proteins used in Tables 1–3 were produced as described earlier. Dockerin constructs to allow enhanced activity assays for mono-ARTs (Table 4) were produced in Escherichia coli with an N-terminal maltose binding protein (MBP) and a C-terminal dockerin domain from Hungateiclostridium thermocellum Cel48s as described recently.[47]
Inhibition experiments were performed using a homogenous assay measuring NAD+ consumption.[80]−[82] Reactions were carried out in quadruplicate, and IC50 curves were fitted using sigmoidal dose response curve (four variables) in GraphPad Prism version 8.02. […] Assay conditions for PARP2, TNKS2, PARP10, and PARP15 (Tables 1–3) were recently reported.[44] The conditions for the proximity-enhanced mono-ART assays (Table 4) were also reported recently.[47] PARP6 (400 nM) inhibition was measured using the standard buffer (50 mM sodium phosphate pH 7.0) for the enhanced activity assay using 500 nM NAD^+ and 18 h incubation in r.t..

PARP2 = molecular target: T2, PARP2 (Homo sapiens, UniProt Q9UGN5); assay: biochemical; type: biochemical
T2 construct: made in house
T2 sequence (Q9UGN5 whole entry): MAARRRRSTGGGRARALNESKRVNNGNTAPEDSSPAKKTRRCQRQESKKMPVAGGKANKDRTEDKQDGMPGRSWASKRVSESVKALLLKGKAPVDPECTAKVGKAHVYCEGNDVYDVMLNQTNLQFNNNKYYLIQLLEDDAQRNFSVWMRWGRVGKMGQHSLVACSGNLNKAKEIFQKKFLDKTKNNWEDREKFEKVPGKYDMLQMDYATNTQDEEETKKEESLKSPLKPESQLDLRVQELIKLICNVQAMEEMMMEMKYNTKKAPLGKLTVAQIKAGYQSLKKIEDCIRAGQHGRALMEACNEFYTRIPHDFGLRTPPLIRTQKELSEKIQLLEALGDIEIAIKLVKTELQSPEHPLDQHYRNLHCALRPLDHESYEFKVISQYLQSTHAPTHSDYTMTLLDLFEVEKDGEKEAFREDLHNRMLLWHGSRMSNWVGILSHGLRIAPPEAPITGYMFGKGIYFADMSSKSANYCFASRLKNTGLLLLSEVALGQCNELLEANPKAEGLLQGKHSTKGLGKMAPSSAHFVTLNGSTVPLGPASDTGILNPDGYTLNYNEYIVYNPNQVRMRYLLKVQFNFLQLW

PARP15 = molecular target: T3, PARP15 (Homo sapiens, UniProt Q460N3); assay: biochemical; type: biochemical; conditions: standard assay (Tables 1-3); * value limited by the protein concentration used; > less than 50% inhibition, ≫ no inhibition at the concentration; read-out: PARP15 IC50
T3 construct: made in house
T3 sequence (Q460N3 1-678): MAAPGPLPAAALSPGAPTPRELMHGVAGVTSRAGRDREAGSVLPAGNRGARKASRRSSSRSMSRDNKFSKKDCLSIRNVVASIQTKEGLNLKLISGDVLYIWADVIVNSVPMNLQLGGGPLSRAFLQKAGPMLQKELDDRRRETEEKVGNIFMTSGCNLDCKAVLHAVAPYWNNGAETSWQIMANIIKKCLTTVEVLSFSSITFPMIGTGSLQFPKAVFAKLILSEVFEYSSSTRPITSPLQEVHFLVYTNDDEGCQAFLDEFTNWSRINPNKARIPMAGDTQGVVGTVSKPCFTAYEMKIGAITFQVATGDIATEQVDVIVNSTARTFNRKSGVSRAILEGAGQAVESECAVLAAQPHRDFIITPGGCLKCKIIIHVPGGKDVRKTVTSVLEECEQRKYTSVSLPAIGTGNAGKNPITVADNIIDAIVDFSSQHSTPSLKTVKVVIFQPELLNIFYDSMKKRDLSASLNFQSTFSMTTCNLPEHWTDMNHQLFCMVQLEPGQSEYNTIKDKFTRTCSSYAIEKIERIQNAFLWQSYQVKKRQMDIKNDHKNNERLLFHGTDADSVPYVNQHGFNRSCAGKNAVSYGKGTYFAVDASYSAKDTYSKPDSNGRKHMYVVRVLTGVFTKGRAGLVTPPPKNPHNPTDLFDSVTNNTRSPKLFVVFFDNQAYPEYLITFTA

[1] = PAMPA, blood brain barrier (BBB) permeability; type: in vitro ADME; conditions: brain polar lipid, pH 7.4, 5 h
Protocol: Each “donor solution” was prepared from a solution of the appropriate compound (DMSO, 1 mM) diluted with phosphate buffer (pH 7.4, 0.025 M) up to a final concentration of 500 μM. […] Donor solution (150 μL) was added to each well of the filter plate and to each well of the acceptor plate was added 300 μL of solution (50% DMSO in phosphate buffer). The sandwich plate was assembled and incubated for 5 h at r.t. After the incubation time, the plates were separated, and the samples were taken from both the donor and acceptor wells, and the amount of compound was measured by UV/LC–MS. All compounds were tested in three independent experiments. […] Drug concentration is estimated by using the peak area integration. Membrane retentions (%) were calculated according to the following equation [drawing 2] where r is the ratio between drug concentration in the acceptor and equilibrium concentration and D, A, and Eq represent drug concentration in the donor, acceptor, and equilibrium solution, respectively.

[2] = read-out: TNKS2 IC50, > = less than 50% inhibition at highest concentration
[3] = > = less than 50% inhibition at highest concentration, ≫ = no inhibition, read-out: PARP2 IC50

Cc1ccc2sc3nncn3c2c1 [Compound 3, 6-Methyl[1,2,4]triazolo[3,4-b][1,3]benzothiazole]
TNKS2 pIC50 ± SEM (TNKS2; n = 3): 6.02 ± 0.13 | IC50 (TNKS2; [2]): 0.95 µM | IC50 (PARP2; [3]): 1.5 µM

Cc1ccc2c(c1)sc1nnc(NCc3ccc(Cl)cc3)n12 [Compound 25, N-(4-Chlorobenzyl)-7-methyl[1,2,4]triazolo[3,4-b][1,3]benzothiazol-3-amine]
IC50 (TNKS2; [2]): > 100 µM | IC50 (PARP2; [3]): 70 µM

CCc1ccc2c(c1)sc1nncn12 [Compound 5, 7-Ethyl[1,2,4]triazolo[3,4-b][1,3]benzothiazole]
IC50 (TNKS2; [2]): 5.3 µM | IC50 (PARP2; [3]): 3.9 µM

CSc1nnc2sc3cc(C)ccc3n12 [Compound 22, 7-Methyl-3-(methylthio)[1,2,4]triazolo[3,4-b][1,3]benzothiazole]
IC50 (TNKS2; [2]): > 100 µM | IC50 (PARP2; [3]): 12 µM

Cc1ccc2c(c1)sc1nnc(O)n12 [Compound 19]
IC50 (TNKS2; [2]): > 100 µM | IC50 (PARP15): > 10 µM | IC50 (PARP2; [3]): > 100 µM

COc1ccc(OC)c2c1sc1nncn12 [Compound 14, 5,8-Dimethoxy[1,2,4]triazolo[3,4-b][1,3]benzothiazole]
IC50 (TNKS2; [2]): 4 µM | IC50 (PARP2; [3]): 9.2 µM

COc1cccc2c1sc1nncn12 [Compound 12, 8-Methoxy[1,2,4]triazolo[3,4-b][1,3]benzothiazole]
IC50 (TNKS2; [2]): 24 µM | IC50 (PARP2; [3]): > 10 µM

COc1ccc2c(c1)sc1nncn12 [Compound 11]
IC50 (TNKS2; [2]): 5.5 µM | IC50 (PARP2; [3]): 8.8 µM

O=C(c1cc(Cc2n[nH]c(=O)c3ccccc23)ccc1F)N1CCN(C(=O)C2CC2)CC1 [olaparib, reference compound]
Papp at 5 h, 500 μM [1]: 0.016 ×10⁻⁶ cm/s

Cc1cccc2c1sc1nncn12 [Compound 4, 8-Methyl[1,2,4]triazolo[3,4-b][1,3]benzothiazole]
IC50 (TNKS2; [2]): 3.8 µM | IC50 (PARP2; [3]): 8.3 µM

COc1cc(OC)c2sc3nncn3c2c1 [Compound 15, 6,8-Dimethoxy[1,2,4]triazolo[3,4-b][1,3]benzothiazole]
IC50 (TNKS2; [2]): 7.6 µM | IC50 (PARP2; [3]): 20 µM

Cc1cc(C)c2c(c1)sc1nncn12 [Compound 8]
IC50 (TNKS2; [2]): 1.2 µM | IC50 (PARP2; [3]): 1.3 µM

COc1cccc2sc3nncn3c12 [Compound 13, 5-Methoxy[1,2,4]triazolo[3,4-b][1,3]benzothiazole]
IC50 (TNKS2; [2]): 1 µM

Cc1ccc2c(c1)sc1nnc(SCc3ccc(Cl)cc3)n12 [Compound 23, 3-[(4-Chlorobenzyl)thio]-7-methyl[1,2,4]triazolo[3,4-b][1,3]benzothiazole]
IC50 (TNKS2; [2]): > 100 µM | IC50 (PARP2; [3]): > 100 µM

Cc1ccc2c(c1)sc1nnc(/N=C\c3ccc(Cl)cc3)n12 [Compound 24, N-[(1Z)-(4-Chlorophenyl)methylene]-7-methyl[1,2,4]triazolo[3,4-b][1,3]benzothiazol-3-amine]
IC50 (TNKS2): > 100 µM | IC50 (PARP2; read-out: PARP2 IC50): 2.9 µM

COc1ccc(OC)c2c1sc1nnc(NC(=O)C(C)(C)C)n12 [Compound 30, N-(5,8-Dimethoxy[1,2,4]triazolo[3,4-b][1,3]benzothiazol-3-yl)-2,2-dimethylpropanamide]
IC50 (TNKS2; [2]): > 100 µM | IC50 (PARP2): 53 µM

Cc1ccc(F)c2c1sc1nncn12 [Compound 9, 5-Fluoro-8-methyl[1,2,4]triazolo[3,4-b][1,3]benzothiazole]
IC50 (TNKS2; [2]): 5.4 µM

COc1ccc(OC)c2c1sc1nnc(NC(C)=O)n12 [Compound 31, N-(5,8-Dimethoxy[1,2,4]triazolo[3,4-b][1,3]benzothiazol-3-yl)acetamide]
IC50 (TNKS2; [2]): > 100 µM | IC50 (PARP2; [3]): 97 µM

COc1ccc(OC)c2c1sc1nnc(S)n12 [Compound 26, 5,8-Dimethoxy[1,2,4]triazolo[3,4-b][1,3]benzothiazole-3(2H)-thione]
IC50 (TNKS2; [2]): 66 µM | IC50 (PARP2; [3]): 19 µM

Oc1cccc2c1sc1nncn12 [Compound 17, [1,2,4]Triazolo[3,4-b][1,3]benzothiazol-8-ol]
IC50 (TNKS2; [2]): 17 µM | IC50 (PARP2; [3]): 29 µM

COc1ccc2sc3nncn3c2c1 [Compound 10, 6-Methoxy[1,2,4]triazolo[3,4-b][1,3]benzothiazole]
IC50 (TNKS2; [2]): 1 µM | IC50 (PARP2; [3]): 4.7 µM

Cc1ccc2c(c1)sc1nncn12 [Compound 1]
IC50 (TNKS2; [2]): 5.3 µM | IC50 (PARP2; [3]): 4 µM

Clc1ccc2c(c1)sc1nncn12 [Compound 7]
IC50 (TNKS2; [2]): 10 µM | IC50 (PARP2; [3]): 2.4 µM
